Our source for the melting point values is a melting point compilation (Tetko et al.; mined from patent text by program, amines drawn as free bases though some values may be those of a salt).

In general, melting point refers to the temperature of the solid-liquid transition.

SMILES strings stand for the structures. Non-standard residues stand in square brackets, D forms with d. Residues, ends and D or L forms follow the SMILES beside them. ξ: configuration not given here. *: point of attachment. Boc = CC(C)(C)OC(=O)*; Dha = C=C(N)C(=O)O; ξP = O=C(O)C1CCCN1 Some results are limits rather than exact numbers.

`C=C(c1ccc(OC)c(OC2CCCC2)c1)c1n[nH]cc1CO`: the melting point was 121 to 123 °C.
For `COc1cc2c(c(Cl)c1Cl)C(=O)C(C)(c1ccc(F)cc1)C2` (stereo unspecified) the value was 163 to 170 °C; for `O=c1c2ccccc2ccn1CCC#Cc1ccccn1`, 85 to 90 °C.
In the case of `CON=C(C(C)=NN=Cc1ccccc1C(=NOC)C(=O)OC)c1ccc(Cl)cc1`, the melting point lay in the range of 104 to 105 °C.
Turning to `COC1=Cc2ccc(Cl)cc2C(O)(C2CCN(C)CC2)c2ccsc21` (stereo unspecified), the melting point lay within 200 to 202 °C.
The figure for `Cc1ccc(C(=O)Nc2c[nH]nc2C(=O)NCCC#N)cn1` is 201 to 203 °C; for `CSc1cc(C(C)(C)C)ccc1O` it is 160 °C; for `CNc1nc(-c2cccc(C(=O)Nc3ccccc3)c2)c2cc(OC)c(OC)cc2n1` it is 242 to 244 °C.
For `O=C(c1ccc2ccccc2c1)C(O)O` the value was 103 to 120 °C; for `CC1c2ccccc2CCON1C(N)=O` (stereo unspecified), 128 to 129 °C; for `C=CCSc1cc(C(=O)O)cc([N+](=O)[O-])c1-c1ccccc1`, 152 to 154 °C.
The compound `NC(=O)c1ccc2c(c1)C(=O)c1cc(F)ccc1C2=O` came in with a melting point of 322 to 323 °C.
For `Cc1ccc(Oc2cccc(C3C4=C(CC(C)(C)CC4=O)NC4=C3C(=O)CC(C)(C)C4)c2)cc1`, the melting point lay within 202 to 203 °C.
As for `N=C(N)NCCC[C@H](NC(=O)c1ccccc1SSc1ccccc1C(=O)N[C@@H](CCCNC(=N)N)C(=O)O)C(=O)O`, the melting point is 208 to 211 °C.
Consider `CCOC(=O)c1cn(C)c2cnc3cc(F)c(N4CCNC(c5ccc(C)c(C)c5)C4)cc3c2c1=O` (stereo unspecified), for which the melting point was determined as 290 °C.
Regarding `CC(C)(CF)C(O)(Cn1ncnc1S)C(Cl)=CCl` (stereo unspecified), the melting point was in the range of 162 to 164 °C.
In turn, `CCC(=O)C(CCCCCCCOc1ccc(OCc2ccccc2)cc1)C(=O)CC` yielded a melting point of 54 to 55 °C.
For `CC(C)(C)NC(=O)[C@@H]1CCCC[C@H]1C[C@@H](O)[C@H](Cc1ccccc1)NC(=O)[C@H](CC(N)=O)NC(=O)OCc1ccccc1` the value was 195 to 199 °C; for `C=C(c1ccccc1)c1cccc(NS(=O)(=O)C(F)(F)F)c1`, 55 to 59 °C.
Compound `COc1ccc(-c2nn(C)c(=O)c3ccccc23)cc1Cl` displayed a melting point of 195 °C.
Consider `NC(=O)c1cn(-c2ccc(F)cc2)c2cc(Cl)ccc2c1=O`, for which the melting point was in the range of 294 to 296 °C.
With `C=CCOc1ccc2cc(C(=O)OCC)[nH]c2c1`, the melting point fell in the range of 89 to 91 °C.
The compound `C=CCn1c(C)nc2c3c(ccc21)[C@@H](OCCOC)[C@H](O)[C@@H](c1ccccc1)O3` came in with a melting point of 79 °C.
Compound `COC(=O)c1ccccc1S(=O)(=O)c1ccc(/C=C/c2ccc(F)cc2)cc1` displayed a melting point of 125 °C.
For `CCCCOC(=O)NC(=O)C1c2ccccc2Sc2ccccc21` the value was 151 to 154 °C; for `CN(SC(Cl)(Cl)Cl)c1nc(C(Cl)(Cl)Cl)ns1`, 106 °C; for `Cn1cc2snnc2n1`, 125 to 127 °C.
The figure for `O=C(O)CN1C(=O)C(=Cc2csc(Nc3ccccc3)n2)SC1=S` is 242 to 246 °C; for `CCCCc1nc2ccccc2n1Cc1ccc(C#N)cc1` it is 130 °C.
As to `COc1cc(CNC=O)ccc1O`, the melting point worked out at 83.5 °C.
The figure for `COc1ccc(Cl)cc1C1(F)C(=O)Nc2cc(C(F)(F)F)cc(C(F)(F)F)c21` (stereo unspecified) is 262 to 264 °C.
The figure for `COC(=O)C1=C(C)NC(C)=C(C(=O)O)C1c1cccc([N+](=O)[O-])c1` (stereo unspecified) is 196 to 197 °C; for `COc1cc2cc(C(=O)Nc3cc(OCc4ccccc4)c4ccccc4c3CCCl)[nH]c2c(OC)c1OC` it is 180 to 184 °C; for `C=CCc1c(O)c(=O)[nH]c2ccccc2c1=O` it is 174 to 175 °C.
The figure for `CC(C)(C)OC(=O)CN1C(=O)C(NC(=O)OCc2ccccc2)C1CCC(=O)O` (stereo unspecified) is 118 to 120 °C; for `N#CN1CCC(Oc2c(F)c(F)c(F)c(F)c2F)(c2ccccc2)CC1` it is 117 to 120 °C; for `CCOc1nn(-c2ccc(C(F)(F)F)cn2)cc1CCCCOc1ccccc1CC(=O)O` it is 109 to 110 °C.
As for `COc1ccc2c(c1)c(CCON)c(C)n2Cc1ccc(Cl)cc1`, the melting point lay within 92 to 94 °C.
`CC(=O)n1nc(C)c(Oc2cc(F)cc(C#N)c2)c1C` yielded a melting point of 109 to 111 °C.
Take `Cn1c(=N)sc2cc(OC(F)(F)F)ccc21`: the melting point lay within 60 to 62 °C.
For `Nc1nnc(-c2ccc(Cl)c(C(F)(F)F)c2)c(N)n1`, the melting point is 228 to 229 °C.
For `O=c1[nH]ncc2[nH]c(-c3ccc(OC(F)F)c(OC4CC4)c3)c(COC3CCC3)c12` the value was 95 to 100 °C.
For `OC1CCc2ccc(Cl)cc2C1` (stereo unspecified) the value was 79 to 81 °C.
For `CC(C)(C)c1ccccc1N1CCN(C(=O)Nc2ccccc2)CC1` the value was 68 to 72 °C; for `CC(C)c1ccn2nc(SCc3ccccc3)nc2n1`, 65 to 66 °C.
With `N#Cc1cnn2c(C(F)(F)F)cc(-c3ccc(C(F)(F)F)cc3)nc12`, the melting point turned out to be 176 °C.
The figure for `COc1cc2c(Nc3ccc(Sc4nccn4C)c(Cl)c3)c(C#N)cnc2cc1N1CCC(N2CCN(C)CC2)CC1` is 235 to 237 °C; for `CCN1CCCC1CNC(=O)c1c(O)ccc(Br)c1O` (stereo unspecified) it is 166 to 168 °C.
For `CN(C(=O)C1c2ccccc2COc2ccc(Br)cc21)c1ccccc1` (stereo unspecified) the value was 148 °C; for `Clc1ccccc1-c1ccc2nncn2c1`, 177 to 180 °C; for `Cc1c(Cl)ccc(C(N)=O)c1N`, 206 to 208 °C.
As to `COC(CNC(=O)C=CC(=O)O)OC`, the melting point was 91 to 92 °C.
`CNc1cccc(C#CCCn2nc3ccccc3n2)n1`: the melting point fell in the range of 150 to 154 °C.
Compound `CCCO[C@@H]1C[C@@H](C(=O)O)N(C(C)=O)C1` displayed a melting point of 148 to 153 °C.
For `C#Cc1c(O)c(C)c(C)c(O)c1C#C`, the melting point is 152 °C.
The figure for `O=C(NNc1ccccc1)NC1(N=NC2(NC(=O)NNc3ccccc3)CCCCC2)CCCCC1` is 148 to 151 °C; for `N#Cc1c(Cl)[nH]c(-c2ccc(Cl)s2)c1Br` it is greater than 200 °C; for `CCCCCC(=O)C=Cc1ccc(Cl)cc1` it is 44 to 47 °C.
The figure for `CNC(=O)c1cc(NCc2c(C)cccc2C)c2nc(C)[nH]c2c1` is 298 °C.
The figure for `CN1Cc2c(-c3nnc(CN)o3)ncn2-c2ccsc2C1=O` is 217 to 219 °C; for `CC=CCNc1cc(C(=O)O)cc(S(N)(=O)=O)c1Sc1ccc(N)cc1` it is 242 °C; for `O=c1c2c(CCCCCCc3ccccc3)n[nH]c2c2cccnc2n1-c1ccccc1` it is 150 to 151 °C.
Compound `OC1CSC(Oc2cccc(-c3cnccn3)c2)C(O)C1O` (stereo unspecified) displayed a melting point of 206 to 209 °C.
The figure for `C=C(NC(=O)C1CCCN1C(=O)OC(C)(C)C)C(=O)O` (stereo unspecified) (Boc-[ξP]-[Dha]-OH) is 154 to 156 °C; for `Cc1cc(-c2cc(Cl)n(C)n2)c(C)[nH]1` it is 59 to 61 °C; for `COc1ccc(CCN(C)CCc2ccc(NC(=O)c3cccc4c(=O)c5ccccc5sc34)cc2)cc1OC` it is 154 °C.
